In patent US9487483B2, “Complement pathway modulators and uses thereof” (priority 2012, dated 2016):

These compounds were tested against Recombinant human factor D (Homo sapiens (Human), UniProt P00746) (assay: biochemical). Settings: Factor D inhibition data using Method 1; substrate Z-Lys-thiobenzyl, fluorescence readout; read-out: IC50.
Type: biochemical

Chain of Recombinant human factor D (P00746 26-253): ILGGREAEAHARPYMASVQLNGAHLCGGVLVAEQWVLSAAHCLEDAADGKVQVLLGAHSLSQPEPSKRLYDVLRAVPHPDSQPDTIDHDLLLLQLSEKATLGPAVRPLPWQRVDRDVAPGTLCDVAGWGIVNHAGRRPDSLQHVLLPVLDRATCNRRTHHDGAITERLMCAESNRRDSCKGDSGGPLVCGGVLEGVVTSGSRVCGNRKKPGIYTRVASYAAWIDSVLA

Going from `CC(=O)c1nn(CC(=O)N2[C@@H]3C[C@@H]3C[C@H]2C(=O)NC2CC(C)(C)C2)c2cnccc12` [Example 1, (1R,3S,5R)-2-[2-(3-Acetyl-pyrazolo[3,4-c]pyridin-1-yl)-acetyl]-2-aza-bicyclo[3.1.0]hexane-3-carboxylic acid (3,3-dimethyl-cyclobutyl)-amide] to `CC(=O)c1nn(CC(=O)N2[C@@H]3C[C@@H]3C[C@H]2C(=O)NC2CC(F)(F)C2)c2cnccc12` [Example 8, (1R,3S,5R)-2-[2-(3-Acetyl-pyrazolo[3,4-c]pyridin-1-yl)-acetyl]-2-aza-bicyclo[3.1.0]hexane-3-carboxylic acid (3,3-difluoro-cyclobutyl)-amide], the IC50 rises from 0.204 µM to 2.39 µM (12-fold).

`CC(=O)c1nn(CC(=O)N2[C@@H]3C[C@@H]3C[C@H]2C(=O)NC2CC2(C)C)c2ncccc12` (stereo partly drawn) [Example 2, (1R,3S,5R)-2-[2-(3-Acetyl-pyrazolo[3,4-b]pyridin-1-yl)-acetyl]-2-aza-bicyclo[3.1.0]hexane-3-carboxylic acid (2,2-dimethyl-cyclopropyl)-amide] and `CC(=O)c1nn(CC(=O)N2[C@@H]3C[C@@H]3C[C@H]2C(=O)NC2CC2(F)F)c2ncccc12` (stereo partly drawn) [Example 3, (1R,3S,5R)-2-[2-(3-Acetyl-pyrazolo[3,4-b]pyridin-1-yl)-acetyl]-2-aza-bicyclo[3.1.0]hexane-3-carboxylic acid (2,2-difluoro-cyclopropyl)-amide] are within 1.5-fold of each other in IC50: 6.9 µM for the first, 4.79 µM for the second.

`CC(=O)c1nn(CC(=O)N2[C@@H]3C[C@@H]3C[C@H]2C(=O)N[C@@H]2C[C@@H]2F)c2ncccc12` [Example 4, (1R,3S,5R)-2-[2-(3-Acetyl-pyrazolo[3,4-b]pyridin-1-yl)-acetyl]-2-aza-bicyclo[3.1.0]hexane-3-carboxylic acid ((1R,2S)-2-fluoro-cyclopropyl)-amide] and `COC(=O)[C@@H]1CC[C@@H](NC(=O)[C@@H]2C[C@H]3C[C@H]3N2C(=O)Cn2nc(C(C)=O)c3cccnc32)C1` [Example 13, (1R,3R)-3-({(1R,3S,5R)-2-[2-(3-Acetyl-pyrazolo[3,4-b]pyridin-1-yl)-acetyl]-2-aza-bicyclo[3.1.0]hexane-3-carbonyl}-amino)-cyclopentane carboxylic acid methyl ester] are within 1.5-fold of each other in IC50: 5.13 µM for the first, 5.97 µM for the second.

Going from `CC(=O)c1nn(CC(=O)N2[C@@H]3C[C@@H]3C[C@H]2C(=O)NC2CC(C)(C)CC(C)(C)C2)c2ncccc12` [Example 6, (1R,3S,5R)-2-[2-(3-Acetyl-pyrazolo[3,4-b]pyridin-1-yl)-acetyl]-2-aza-bicyclo[3.1.0]hexane-3-carboxylic acid (3,3,5,5-tetramethyl-cyclohexyl)-amide] to `COC(=O)[C@@H]1CCC[C@H](NC(=O)[C@@H]2C[C@H]3C[C@H]3N2C(=O)Cn2nc(C(C)=O)c3cccnc32)C1` [Example 14, (1R,3S)-3-({(1R,3S,5R)-2-[2-(3-Acetyl-pyrazolo[3,4-b]pyridin-1-yl)-acetyl]-2-aza-bicyclo[3.1.0]hexane-3-carbonyl}-amino)-cyclohexanecarboxylic acid methyl ester], the IC50 rises from 0.056 µM to 2.43 µM (43-fold).

Going from `CC(=O)c1nn(CC(=O)N2[C@@H]3C[C@@H]3C[C@H]2C(=O)NC2CCOC(C)(C)C2)c2cnccc12` (stereo partly drawn) [Example 7, (1R,3S,5R)-2-[2-(3-Acetyl-pyrazolo[3,4-c]pyridin-1-yl)-acetyl]-2-aza-bicyclo[3.1.0]hexane-3-carboxylic acid (2,2-dimethyl-tetrahydro-pyran-4-yl)-amide] to `CC(=O)c1nn(CC(=O)N2[C@@H]3C[C@@H]3C[C@H]2C(=O)NC2CCC(F)(F)CC2)c2cnccc12` [Example 11, (1R,3S,5R)-2-[2-(3-Acetyl-pyrazolo[3,4-c]pyridin-1-yl)-acetyl]-2-aza-bicyclo[3.1.0]hexane-3-carboxylic acid (4,4-difluoro-cyclohexyl)-amide], the IC50 rises from 1.68 µM to 3.02 µM (1.8-fold).

Compared with `NC(=O)n1cc(NC(=O)N2[C@@H]3C[C@@H]3C[C@H]2C(=O)NC2CCCCC2)c2ccccc21` [Example 15, (1R,3S,5R)-2-Aza-bicyclo[3.1.0]hexane-2,3-dicarboxylic acid 2-[(1-carbamoyl-1H-indol-3-yl)-amide]3-cyclohexylamide], `CO[C@H]1CCC[C@@H](NC(=O)[C@@H]2C[C@H]3C[C@H]3N2C(=O)Nc2cn(C(N)=O)c3ccccc23)C1` [Example 21, (1R,3S,5R)-2-Aza-bicyclo[3.1.0]hexane-2,3-dicarboxylic acid 2-[(1-carbamoyl-1H-indol-3-yl)-amide] 3-[((1R,3S)-3-methoxy-cyclohexyl)-amide]] is 3.6-fold lower in IC50: 1.76 µM for the first, 0.486 µM for the second.

Compared with `NC(=O)n1cc(NC(=O)N2[C@@H]3C[C@@H]3C[C@H]2C(=O)N[C@@H]2C=CCCC2)c2ccccc21` [Example 16, (1R,3S,5R)-2-Aza-bicyclo[3.1.0]hexane-2,3-dicarboxylic acid 2-[(1-carbamoyl-1H-indol-3-yl)-amide] 3-(S)-cyclohex-2-enylamide], `CC[C@H]1CCC[C@@H](NC(=O)[C@@H]2C[C@H]3C[C@H]3N2C(=O)Nc2cn(C(N)=O)c3ccccc23)C1` [Example 23, (1R,3S,5R)-2-Aza-bicyclo [3.1.0]hexane-2,3-dicarboxylic acid 2-[(1-carbamoyl-1H-indol-3-yl)-amide] 3-[((1R,3S)-3-ethyl-cyclohexyl)-amide]] is 200-fold lower in IC50: 3.15 µM for the first, 0.016 µM for the second. The second is the more potent here.

Compared with `CC1(C)CCC[C@@H](NC(=O)[C@@H]2C[C@H]3C[C@H]3N2C(=O)Nc2cn(C(N)=O)c3ccccc23)C1` [Example 22, (1R,3S,5R)-2-Aza-bicyclo[3.1.0]hexane-2,3-dicarboxylic acid 2-[(1-carbamoyl-1H-indol-3-yl)-amide] 3-[((R)-3,3-dimethyl-cyclohexyl)-amide]], `CC[C@@H]1CCC[C@H](NC(=O)[C@@H]2C[C@H]3C[C@H]3N2C(=O)Nc2cn(C(N)=O)c3ccccc23)C1` [Example 24, (1R,3S,5R)-2-Aza-bicyclo [3.1.0]hexane-2,3-dicarboxylic acid 2-[(1-carbamoyl-1H-indol-3-yl)-amide] 3-[((1S,3R)-3-ethyl-cyclohexyl)-amide]] is 27-fold higher in IC50: 0.015 µM for the first, 0.401 µM for the second. The first is the more potent here.

Same assay, conditions: IC50, Factor D inhibition data using Method 1; substrate Z-Lys-thiobenzyl, fluorescence readout

First: COC1(C(F)(F)F)CCCC(NC(=O)[C@@H]2C[C@H]3C[C@H]3N2C(=O)Cn2nc(C(N)=O)c3ccccc32)C1 (single isomer, unassigned) [Example 39]
Second: NC(=O)c1nn(CC(=O)N2[C@@H]3C[C@@H]3C[C@H]2C(=O)NC2CCCC3(CC3)C2)c2ccccc12 (single isomer, unassigned) [Example 57]
The IC50 of the first is 23-fold lower: 0.085 µM for the first, 1.93 µM for the second. The first is the more potent here.

Going from `COC1(C(F)(F)F)CCCC(NC(=O)[C@@H]2C[C@H]3C[C@H]3N2C(=O)Cn2nc(C(N)=O)c3ccccc32)C1` (single isomer, unassigned) [Example 40] to `NC(=O)c1nn(CC(=O)N2[C@@H]3C[C@@H]3C[C@H]2C(=O)NC2CCCC3(CC3)C2)c2ccccc12` (single isomer, unassigned) [Example 58], the IC50 falls from 4.47 µM to 0.041 µM (110-fold).

First: CC1(C)CCC(NC(=O)[C@@H]2C[C@H]3C[C@H]3N2C(=O)Cn2nc(C(N)=O)c3ccncc32)C1 (single isomer, unassigned) [Example 67]
Second: CC(=O)c1nn(CC(=O)N2[C@H](C(=O)NC3CCCC4(CC4)C3)C[C@@]3(CO)C[C@@H]23)c2cnccc12 (single isomer, unassigned) [Example 113]
The IC50 of the first is 3.5-fold higher: 0.318 µM for the first, 0.09 µM for the second. The second is the more potent here.

Compared with `CC1(C)CCC(NC(=O)[C@@H]2C[C@H]3C[C@H]3N2C(=O)Cn2nc(C(N)=O)c3ccncc32)C1` (single isomer, unassigned) [Example 68], `CC(=O)c1nn(CC(=O)N2[C@H](C(=O)NC3CCCC4(CC4)C3)C[C@@]3(CO)C[C@@H]23)c2cnccc12` (single isomer, unassigned) [Example 114] is 1.5-fold lower in IC50: 1.92 µM for the first, 1.28 µM for the second.

For `NC(=O)c1nn(CC(=O)N2C[C@H](F)C[C@H]2C(=O)NC2CCCC3(CC3)C2)c2ccccc12` (single isomer, unassigned) [Example 92], the IC50 was 2 µM.
`NC(=O)c1nn(CC(=O)N2C[C@H](F)C[C@H]2C(=O)NC2CCCC3(CC3)C2)c2ccccc12` (single isomer, unassigned) [Example 93] showed an IC50 of 0.092 µM.

Same assay, conditions: read-out: IC50

First: COC1(C)CCCC(NC(=O)[C@@H]2C[C@H]3C[C@H]3N2C(=O)Cn2nc(C(N)=O)c3ccccc32)C1 (mixture of isomers) [Example 126, 1-(2-((1R,3S,5R)-3-(((1R,3S) and (1S,3R)-3-methoxy-3-methylcyclohexyl)carbamoyl)-2-azabicyclo[3.1.0]hexan-2-yl)-2-oxoethyl)-1H-indazole-3-carboxamide]
Second: CC(=O)c1nn(CC(=O)N2[C@@H]3C[C@@H]3C[C@H]2C(=O)NC2CCCC(F)(F)C2)c2cnccc12 (stereo partly drawn) [Example 9, (1R,3S,5R)-2-[2-(3-Acetyl-pyrazolo[3,4-c]pyridin-1-yl)-acetyl]-2-aza-bicyclo[3.1.0]hexane-3-carboxylic acid (3,3-difluoro-cyclohexyl)-amide]
The IC50 of the first is 7.4-fold lower: 0.2 µM for the first, 1.48 µM for the second.

First: CC(=O)c1nn(CC(=O)N2[C@@H]3C[C@@H]3C[C@H]2C(=O)NC2CC(C)CC(C)(C)C2)c2ncccc12 (stereo partly drawn) [Example 5, (1R,3S,5R)-2-[2-(3-Acetyl-pyrazolo[3,4-b]pyridin-1-yl)-acetyl]-2-aza-bicyclo[3.1.0]hexane-3-carboxylic acid (3,3,5-trimethyl-cyclohexyl)-amide]
Second: CC(=O)c1nn(CC(=O)N2[C@@H]3C[C@@H]3C[C@H]2C(=O)N[C@@H]2CC[C@@H](C(N)=O)C2)c2ncccc12 [Example 12, (1R,3S,5R)-2-[2-(3-Acetyl-pyrazolo[3,4-b]pyridin-1-yl)-acetyl]-2-aza-bicyclo[3.1.0]hexane-3-carboxylic acid ((1R,3R)-3-carbamoyl-cyclopentyl)-amide]
The IC50 of the first is 580-fold lower: 0.022 µM for the first, 12.7 µM for the second.

First: CC(=O)c1nn(CC(=O)N2[C@@H]3C[C@@H]3C[C@H]2C(=O)NC2(CO)CCCCC2)c2cnccc12 [Example 10, (1R,3S,5R)-2-[2-(3-Acetyl-pyrazolo[3,4-c]pyridin-1-yl)-acetyl]-2-aza-bicyclo[3.1.0]hexane-3-carboxylic acid (1-hydroxymethyl-cyclohexyl)-amide]
Second: C[C@H]1CCC[C@@H](NC(=O)[C@@H]2C[C@H]3C[C@H]3N2C(=O)Nc2cn(C(N)=O)c3ccccc23)C1 [Example 25, (1R,3S,5R)-2-Aza-bicyclo[3.1.0] hexane-2,3-dicarboxylic acid 2-[(1-carbamoyl-1H-indol-3-yl)-amide] 3-[((1R,3S)-3-methyl-cyclohexyl)-amide]]
The IC50 of the first is 65-fold higher: 1.82 µM for the first, 0.028 µM for the second.
